Results taken from patent US9751881B2, “Inhibitors of the renal outer medullary potassium channel” (Merck Sharp & Dohme Corp., priority 2013, dated 2017).
Structures can show the parent of a compound that is named as a salt.

Target: hROMK (hKir1.1) (Homo sapiens (Human), UniProt P48048)
Test: Thallium Flux Assay (ROMK channel functional thallium flux, FLIPR-Tetra)
Format: cell-based
Conditions: HEK293 cells stably expressing hROMK (hKir1.1); unit not given in Table 4 (IC50 potencies less than 1 μM); read-out: ROMK TI IC50
Protocol: Cell Culture Conditions—HEK293 cells stably expressing hROMK (hKir1.1) were grown at 37° C. in a 10% CO2 humidified incubator in complete growth media: Dulbecco's Modified Eagle Medium supplemented with non-essential amino acids, Penicillin/Streptomycin/Glutamine, G418 and FBS. At >80% confluency, the media was aspirated from the flask and rinsed with 10 mL calcium/magnesium-free PBS. […] To dislodge the cell, the side of the flask was gently banged with one's hand. The cells completely titrated and then the cells were transferred to 25 mL complete media, centrifuged at 1,500 rpm for 6 min followed by resuspension in complete growth media and determine cell concentration. […] Under ideal growth conditions and appropriate tissue culture practices, this cell line is stable for 40-45 passages.
FluxOR Kit Components (Invitrogen F10017)
• FluxOR™ Reagent (Component A) • FluxOR™ Assay Buffer (Component B)—10× Concentrate • PowerLoad™ Concentrate (Component C)—100× Concentrate • Probenecid (Component D)—Lyophilized sample is kept at −20° C. Water soluble, 100× after solubilization in 1 mL water. […] Store at 4° C. • Thallium sulfate (Tl2SO4) Concentrate (Component G)—50 mM in water. […] Can be stored at room temperature • Stimulant Buffer (prepared at 5× final concentration in 1× FluxOR™Chloride-Free Buffer): 7.5 mM thallium sulfate and 0.75 mM potassium sulfate (to give a final assay concentration of 3 mM Thallium/0.3 mM potassium). Store at 4° C. when not in use. If kept sterile, this solution is good for months.
• 1. Seed HEK-hKir1.1 cells (50 μl at 20,000 cells/well) in 384-well PDL coated Microplates • 2. Allow cells to adhere overnight in humidified 37° C./10% CO2 incubator • 3. Completely remove cell growth media from microplate and replace with 25 μl loading buffer • 4. Incubate Microplate at room temperature, protected form light, for 90 min • 5. Remove loading buffer and replace with 25 μl 1× Assay Buffer±test compound. • 6. Incubate microplate at room temperature, protected from light, for 30 min • 7. […] Excitation=400 nm, Emission=460 & 580 nm. Collect data for ˜10 min.
Data Calculation—The fluorescence intensity of wells containing 3 μM of a standard control ROMK inhibitor of the present invention was used to define the ROMK-sensitive component of thallium flux. Fluorescence in the presence of test compounds was normalized to control values to provide % fluorescence change.

hROMK (hKir1.1), sequence (P48048 whole entry): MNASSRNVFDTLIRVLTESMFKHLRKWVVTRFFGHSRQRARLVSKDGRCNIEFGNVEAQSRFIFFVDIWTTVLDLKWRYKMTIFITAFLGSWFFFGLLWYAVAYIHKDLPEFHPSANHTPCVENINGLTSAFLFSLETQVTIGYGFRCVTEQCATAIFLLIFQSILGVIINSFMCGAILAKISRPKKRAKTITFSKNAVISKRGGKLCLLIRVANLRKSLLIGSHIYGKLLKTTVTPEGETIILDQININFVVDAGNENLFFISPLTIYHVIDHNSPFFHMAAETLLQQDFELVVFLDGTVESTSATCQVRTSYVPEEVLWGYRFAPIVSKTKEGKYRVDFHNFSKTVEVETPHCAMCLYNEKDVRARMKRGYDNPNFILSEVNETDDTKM

Row | SMILES | IC50
1 | Cc1cc2c(cc1C(O)CN1CCC3(CC1)CCN(c1ccc(S(C)(=O)=O)cn1)C3)COC2=O (stereo not drawn) [Example 39, 5-(1-Hydroxy-2-(2-(5-(methylsulfonyl)pyridin-2-yl)-2,8-diazaspiro[4.5]decan-8-yl)ethyl)-6-methylisobenzofuran-1(3H)-one] | 195 nM
2 | Cc1c([C@@H](O)CN2CCC3(CC2)CCN(c2ccc(S(C)(=O)=O)nc2)C3=O)ccc2c1COC2=O [Example 55, (R)-8-(2-Hydroxy-2-(4-methyl-1-oxo-1,3-dihydroisobenzofuran-5-yl)ethyl)-2-(6-(methylsulfonyl)pyridin-3-yl)-2,8-diazaspiro[4.5]decan-1-one] | 85.1 nM
3 | Cc1c(CCN2CCC3(CC2)CCN(c2ccc(-c4ncon4)cn2)C3)ccc2c1COC2=O [Example 17, 5-(2-(2-(5-(1,2,4-oxadiazol-3-yl)pyridin-2-yl)-2,8-diazaspiro[4.5]decan-8-yl)ethyl)-4-methylisobenzofuran-1(3H)-one] | 190 nM
4 | Cc1c([C@@H](O)CN2CCC3(CC2)CCN(c2ccc(-n4ccnn4)cc2)C3)ccc2c1COC2=O [Example 80] | 63.5 nM
5 | C[C@@H]1Cc2cc(C(O)CN3CCC4(CC3)CN(c3ccc(C#N)cn3)C4)ccc2C(=O)O1 (stereo partly drawn) [Example 52B, 6-(7-(2-Hydroxy-2-((R)-3-methyl-1-oxoisochroman-6-yl)ethyl)-2,7-diazaspiro[3.5]nonan-2-yl)nicotinonitrile] | 69.9 nM
6 | Cc1c([C@@H](O)CN2CCC3(CC2)CC(=O)N(c2ccc(C#N)cn2)C3)ccc2c1COC2=O [Example 1, (R)-6-(8-(2-hydroxy-2-(4-methyl-1-oxo-1,3-dihydroisobenzofuran-5-yl)ethyl)-3-oxo-2,8-diazaspiro[4.5]decan-2-yl)nicotinonitrile] | 10.5 nM
7 | N#Cc1ccc(N2CCC3(CCN(CC(O)c4ccc5c(c4C4CC4)COC5=O)CC3)C2)nc1 (stereo not drawn) [Example 26, 6-(8-(2-(4-Cyclopropyl-1-oxo-1,3-dihydroisobenzofuran-5-yl)-2-hydroxyethyl)-2,8-diazaspiro[4.5]decan-2-yl)nicotinonitrile] | 458 nM
8 | Cc1c([C@@H](O)CN2CCC3(CCCN(c4ncc(-n5cnnn5)cn4)C3)CC2)ccc2c1COC2=O [Example 43, (R)-5-(2-(2-(5-(1H-tetrazol-1-yl)pyrimidin-2-yl)-2,9-diazaspiro[5.5]undecan-9-yl)-1-hydroxyethyl)-4-methylisobenzofuran-1(3H)-one] | 37 nM
9 | CC1=CS(=O)(=O)c2ccc(N3CCC4(CCN(C[C@H](O)c5ccc6c(c5C)COC6=O)CC4)C3)cc21 [Example 88] | 353 nM
10 | Cc1c([C@@H](O)CN2CCC3(CC2)CN(c2ccc(C#N)cn2)C3=O)ccc2c1COC2=O [Example 44, (R)-6-(7-(2-Hydroxy-2-(4-methyl-1-oxo-1,3-dihydroisobenzofuran-5-yl)ethyl)-1-oxo-2,7-diazaspiro[3.5]nonan-2-yl)nicotinonitrile] | 369 nM
11 | Cc1c([C@@H](O)CN2CCC3(CC2)CCN(c2cnc(S(C)(=O)=O)cn2)C3=O)ccc2c1COC2=O [Example 42, (R)-8-(2-Hydroxy-2-(4-methyl-1-oxo-1,3-dihydroisobenzofuran-5-yl)ethyl)-2-(5-(methylsulfonyl)pyrazin-2-yl)-2,8-diazaspiro[4.5]decan-1-one] | 216 nM
12 | Cc1c([C@@H](O)CN2CCC3(CC2)CCN(c2ncc(S(C)(=O)=O)s2)C3)ccc2c1COC2=O [Example 38, (R)-5-(1-Hydroxy-2-(2-(5-(methylsulfonyl)thiazol-2-yl)-2,8-diazaspiro[4.5]decan-8-yl)ethyl)-4-methylisobenzofuran-1(3H)-one] | 60 nM
13 | CCS(=O)(=O)c1cnc(N2CC3(CCN(C[C@H](O)c4ccc5c(c4C)COC5=O)CC3)CC2=O)cn1 [Example 68, 2-[5-(Ethylsulfonyl)pyrazin-2-yl]-8-[(2R)-2-hydroxy-2-(4-methyl-1-oxo-1,3-dihydro-2-benzofuran-5-yl)ethyl]-2,8-diazaspiro[4.5]decan-3-one hydrochloride] | 127 nM

Second part, the compound after the results:

Row | IC50 | SMILES
14 | 341 nM | Cc1c([C@H](O)CN2CCC3(CC2)CCN(c2ccc(S(C)(=O)=O)cn2)C3)ccc2c1COC2=O [Example 56, (S)-5-(1-Hydroxy-2-(2-(5-(methylsulfonyl)pyridin-2-yl)-2,8-diazaspiro[4.5]decan-8-yl)ethyl)-4-methylisobenzofuran-1(3H)-one]
15 | 6.7 nM | Cc1c([C@@H](O)CN2CCC3(CC2)CCN(c2ncc(C#N)s2)C3)ccc2c1COC2=O [Example 90]
16 | 44.1 nM | Cc1c([C@@H](O)CN2CCC3(CC2)CCN(c2cnc(S(C)(=O)=O)cn2)C3)ccc2c1COC2=O [Example 33, (R)-5-(1-Hydroxy-2-(2-(5-(methylsulfonyl)pyrazin-2-yl)-2,8-diazaspiro[4.5]decan-8-yl)ethyl)-4-methylisobenzofuran-1(3H)-one]
17 | 271 nM | CCS(=O)(=O)c1ccc(N2CCC3(CCN(C[C@H](O)c4ccc5c(c4C)COC5=O)CC3)C2)cn1 [Example 30, (R)-5-(2-(2-(6-(Ethylsulfonyl)pyridin-3-yl)-2,8-diazaspiro[4.5]decan-8-yl)-1-hydroxyethyl)-4-methylisobenzofuran-1(3H)-one]
18 | 10 nM | Cc1c([C@@H](O)CN2CCC3(CC2)CCN(c2ccc(C#N)cn2)C3)ccc2c1COC2=O [Example 3, (R)-6-(8-(2-hydroxy-2-(4-methyl-1-oxo-1,3-dihydroisobenzofuran-5-yl)ethyl)-2,8-diazaspiro[4.5]decan-2-yl)nicotinonitrile]
19 | 13.5 nM | Cc1c([C@@H](O)CN2CCC3(CC2)CCN(c2ccc(C#N)nn2)CC3)ccc2c1COC2=O [Example 105, (R)-6-(9-(2-hydroxy-2-(4-methyl-1-oxo-1,3-dihydroisobenzofuran-5-yl)ethyl)-3,9-diazaspiro[5.5]undecan-3-yl)pyridazine-3-carbonitrile]
20 | 19 nM | Cc1c([C@@H](O)CN2CCC3(CCN(c4ccc(C#N)cn4)CC3)C2)ccc2c1COC2=O [Example 53, (R)-6-(2-(2-Hydroxy-2-(4-methyl-1-oxo-1,3-dihydroisobenzofuran-5-yl)ethyl)-2,8-diazaspiro[4.5]decan-8-yl)nicotinonitrile]
21 | 4.7 nM | Cc1c([C@@H](O)CN2CCC3(CC2)CCN(c2cnc(C#N)cn2)C3)ccc2c1COC2=O [Example 83]
22 | 135 nM | Cc1cc(N2CCC3(CCN(C[C@H](O)c4ccc5c(c4C)COC5=O)CC3)C2)cnc1S(C)(=O)=O [Example 23, (R)-5-(1-Hydroxy-2-(2-(5-methyl-6-(methylsulfonyl)pyridin-3-yl)-2,8-diazaspiro[4.5]decan-8-yl)ethyl)-4-methylisobenzofuran-1(3H)-one]
23 | 41.1 nM | Cc1c([C@@H](O)CN2CCC3(CC2)CCN(c2ccc(S(C)(=O)=O)cn2)C3)ccc2c1COC2=O [Example 22, (R)-5-(1-Hydroxy-2-(2-(5-(methylsulfonyl)pyridin-2-yl)-2,8-diazaspiro[4.5]decan-8-yl)ethyl)-4-methylisobenzofuran-1(3H)-one]
24 | 33 nM | Cc1c([C@@H](O)CN2CCC3(CC2)CCN(c2cncc(C#N)c2)C3)ccc2c1COC2=O [Example 12, (R)-5-(8-(2-Hydroxy-2-(4-methyl-1-oxo-1,3-dihydroisobenzofuran-5-yl)ethyl)-2,8-diazaspiro[4.5]decan-2-yl)nicotinonitrile]
